# Experimental data published in PMC3324652 (2012).
# Molecular target: cannabinoid receptor type 2 (CB2) (Homo sapiens, UniProt P34972)
# Test: radioligand saturation binding
# Chain of cannabinoid receptor type 2 (CB2) (P34972 whole entry): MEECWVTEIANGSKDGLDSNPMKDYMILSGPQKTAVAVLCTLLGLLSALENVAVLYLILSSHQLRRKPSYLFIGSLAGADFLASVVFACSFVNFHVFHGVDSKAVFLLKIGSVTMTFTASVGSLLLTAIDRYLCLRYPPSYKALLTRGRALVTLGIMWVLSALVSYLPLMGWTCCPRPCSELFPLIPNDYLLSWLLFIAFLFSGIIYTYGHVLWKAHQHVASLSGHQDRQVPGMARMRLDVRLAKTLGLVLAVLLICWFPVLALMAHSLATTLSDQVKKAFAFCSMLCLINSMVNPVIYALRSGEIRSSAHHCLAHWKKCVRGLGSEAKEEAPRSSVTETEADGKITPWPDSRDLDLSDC
smiles,measurement,value
"CCCCOc1c(OC)ccc2cc(C(=O)NCc3ccc(F)cc3)c(=O)[nH]c12 [[18F]-14, 7-methoxy-8-butoxy-2-oxo-1,2-dihydroquinoline-3-carboxylic acid-(4-fluorobenzyl)amide]",Kd,3.4 nM
